These are literature values, as cited in US20240156825A1, “USE OF SELECTIVE VEGFR2 AND FGFR1 INHIBITORS” (Fountain Therapeutics Inc., priority 2022, published 2024).

Where two headings read alike, the source gives them in different places.

In this data set the test system is any gene target. Conditions: read-out: Min IC50_μM, cited from earlier work.
[1] abbreviates: lowest reported IC50 to any gene target.
Where [2] appears, read: Table 2, lowest reported IC50 to any gene target.
Setting [3] is: next lowest IC50 value to any gene target, Table 3.
Where [4] appears, read: next lowest IC50 value to any gene target.

For the molecule `COc1cc(OC)cc(N(CC(O)CN2CCCCC2)c2ccc3ncc(-c4cnn(C)c4)nc3c2)c1` (stereo not shown) [compound 68209482], under setting [1], the IC50 was 2.95 nM. For the molecule `COc1cc(OC)cc(N(CCNC(C)C)c2ccc3ncc(-c4cnn(C)c4C)nc3c2)c1` [compound 68209154], the IC50 under setting [2] is 4.68 nM. Turning to `COc1cc(OC)cc(N(C[C@@H]2CCCN2)c2ccc3ncc(-c4cnn(C)c4)nc3c2)c1` [compound 68208803], the IC50 under setting [2] was 3.16 nM. As to `COc1cc2c(Nc3ccc(Cl)c(Cl)c3F)ncnc2cc1OC[C@@H]1CN2CCCC[C@@H]2C(=O)N1` [compound 57802634], under setting [3], the IC50 is 50 nM. As to `COc1cc(OC)cc(N(CCCN2[C@H](C)CC[C@@H]2C)c2ccc3ncc(-c4cnn(C)c4)nc3c2)c1` [compound 89447423], the IC50 under setting [1] is 3.24 nM.

As for `CNCCN(c1cc(OC)cc(OC)c1)c1ccc2ncc(-c3cnn(C(C)C)c3)nc2c1` [compound 134133926], the IC50 under setting [2] was 2.88 nM.

On to `COc1cc(OC)cc(N(CCN(C)C(C)C)c2ccc3ncc(-c4cnn(C)c4)nc3c2)c1` [compound 68209043], for which, under setting [2], the IC50 is 3.89 nM. Take `CNC(=O)c1ccccc1Sc1ccc2c(/C=C/c3ccccn3)n[nH]c2c1` [compound 6450551]: under setting [3], the IC50 was 0.1 nM. Turning to `Clc1ccc(Nc2nnc(Cc3ccncc3)c3ccccc23)cc1` [compound 151193], the IC50 under setting [4] was 77 nM.

As to `CNCC(O)CN(c1cc(OC)cc(OC)c1)c1ccc2ncc(-c3cnn(C)c3)nc2c1` (stereo not shown) [compound 134149546], under setting [1], the IC50 is 2.82 nM. Consider `COc1cc2nccc(Oc3ccc(NC(=O)Nc4cc(C)on4)c(Cl)c3)c2cc1OC` [compound 118737468], for which the IC50 under setting [4] is 3.26 nM. For the molecule `COc1cc(OC)cc(N(CCN2CCCCC2)c2ccc3ncc(-c4cnn(C)c4)nc3c2)c1` [compound 68209029], under setting [2], the IC50 was 2.24 nM. In the case of `COc1cc2nccc(Oc3ccc4c(C(=O)NC5CC5)cccc4c3)c2cc1OC` [compound 11441375], the IC50 under setting [4] was 27 nM. For the molecule `Nc1ncnc2snc(-c3ccc(NC(=O)Nc4cc(C(F)(F)F)ccc4F)cc3)c12` [compound 44414779], under setting [4], the IC50 is 22 nM. For the molecule `COc1cc(OC)cc(N(CC#Cc2cc(C(N)=O)ccn2)c2ccc3ncc(-c4cnn(C)c4)nc3c2)c1` [compound 89447328], the IC50 under setting [2] is 2.46 nM. Regarding `COc1cc(OC)cc(N(CCNC(C)C)c2ccc3ncc(-c4cn[nH]c4)nc3c2)c1` [compound 134157816], under setting [2], the IC50 was 2.82 nM.

For the molecule `COc1cc(OC)cc(N(CCNC(C)C)c2ccc3ncc(-c4cnn(C5CCNCC5)c4)nc3c2)c1` [compound 68208989], the IC50 under setting [2] was 2.88 nM. Consider `CCOC(=O)C1CCN(CCN(c2cc(OC)cc(OC)c2)c2ccc3ncc(-c4cnn(C)c4)nc3c2)CC1` [compound 68209310], for which, under setting [1], the IC50 was 3.39 nM.

Take `COc1cc(OC)cc(N(CCN(Cc2ccc(N)cc2)C(C)C)c2ccc3ncc(-c4cnn(C)c4)nc3c2)c1` [compound 89447175]: under setting [2], the IC50 is 5.89 nM. With `COc1cc(OC)cc(N(CCNC(C)C)c2ccc3ncc(-c4cnn(CC5CCOCC5)c4)nc3c2)c1` [compound 134141677], the IC50 under setting [2] was 2.19 nM. As to `COc1cc2nccc(Oc3ccc(NC(=O)NC4CC4)c(Cl)c3)c2cc1C(N)=O` [compound 9823820], the IC50 under setting [4] was 5.2 nM. `COc1cc(OC)cc(N(CC#Cc2nccc(OC)n2)c2ccc3ncc(-c4cnn(C)c4)nc3c2)c1` [compound 67467703]: the IC50 under setting [2] was 7.41 nM. On to `COc1cc(OC)cc(N(CCN2CCCC2)c2ccc3ncc(-c4cn[nH]c4)nc3c2)c1` [compound 134153401], for which, under setting [2], the IC50 was 2.46 nM. Regarding `COc1cc(OC)cc(N(CCCN2CCCC2(C)C)c2ccc3ncc(-c4cnn(C)c4)nc3c2)c1` [compound 134151320], the IC50 under setting [1] was 1.91 nM. As to `C[C@@H](Oc1ccc2[nH]nc(/C=C/c3cnn(CCO)c3)c2c1)c1c(Cl)cncc1Cl` [compound 46944259], under setting [2], the IC50 was 2.6 nM. On to `COc1cc(OC)cc(N(CCN2CCC(O)C2)c2ccc3ncc(-c4cnn(C)c4)nc3c2)c1` (stereo not shown) [compound 134154939], for which the IC50 under setting [1] was 1.82 nM. As to `COc1ccc(-c2ccc(NC(=O)Nc3cccc(Cl)c3)cc2)c2c(N)noc12` [compound 11429729], the IC50 under setting [4] was 30 nM. In the case of `CC(C)(C)NC(=O)Nc1ccc2[nH]nc(-c3nc4ccc(N5CCC(N6CCCCC6)CC5)cc4[nH]3)c2c1` [compound 135819982], under setting [1], the IC50 is 1 nM. With `COc1cc2ncnc(Oc3ccc4c(C(N)=O)cccc4c3)c2cc1OC` [compound 24823094], the IC50 under setting [4] was 680 nM. Regarding `CCn1cc(-c2cnc3ccc(N(CCNC)c4cc(OC)cc(OC)c4)cc3n2)cn1` [compound 68208927], the IC50 under setting [2] is 3.55 nM.

For the molecule `COc1cc(OC)cc(N(CC#Cc2nccnc2Cl)c2ccc3ncc(-c4cnn(C)c4)nc3c2)c1` [compound 89447345], under setting [2], the IC50 was 15.8 nM. For the molecule `CCNC(=O)c1cccc2cc(Oc3ccnc4cc(OC)c(OC)cc34)ccc12` [compound 11486459], the IC50 under setting [4] is 46 nM. With `COc1ccc(-c2cnc3c(-c4cn[nH]c4)cnn3c2)cc1` [compound 57339386], the IC50 under setting [4] is 16 nM. `CNCCN(c1cc(OC)cc(OC)c1)c1ccc2ncc(-c3cnn(CC(=O)NC)c3)nc2c1` [compound 134131862]: under setting [2], the IC50 is 2.4 nM. Consider `COc1ccc(N(C)c2ncnc3occ(C)c23)cc1` [compound 44555430], for which, under setting [4], the IC50 is 12.3 nM.

Take `COc1cc(OC)cc(N(CC#Cc2cc(CO)ccn2)c2ccc3ncc(-c4cnn(C)c4)nc3c2)c1` [compound 89447343]: the IC50 under setting [2] was 3.39 nM. For `CCNC(=O)Nc1ccc(Oc2ncnc(N)c2/C=N/OC)cc1Cl` [compound 16742063], under setting [4], the IC50 was 183 nM. As for `COc1ccc(Cl)c(N(CCNC(C)C)c2ccc3ncc(-c4cnn(C)c4)nc3c2)c1` [compound 134153603], the IC50 under setting [2] is 3.71 nM. As to `COc1cc(OC)cc(N(c2ccc3ncc(-c4cnn(C)c4)nc3c2)C(C)CNC(C)C)c1` (stereo not shown) [compound 68208877], under setting [2], the IC50 was 4.9 nM. For `CN1CCN(CCCNc2ncc3cc(-c4c(Cl)cccc4Cl)c(NC(=O)NC4CCCCC4)nc3n2)CC1` [compound 5328158], the IC50 under setting [1] is 31 nM. On to `CCCNC(=O)Nc1ccc(Oc2ncnc3cc(OC)c(OC)cc23)cc1Cl` [compound 9549295], for which the IC50 under setting [3] was 1 nM. Consider `Nc1[nH]nc2nccc(-c3ccc(NC(=O)Nc4cccc(C(F)(F)F)c4)cc3)c12` [compound 11495270], for which the IC50 under setting [4] is 2 nM. In the case of `COc1cc2nccc(Oc3ccc4c(C(=O)Nc5ccc(Cl)cc5)cccc4c3)c2cc1OC` [compound 24757938], the IC50 under setting [4] is 0.5 nM. Regarding `COc1cc(OC)cc(N(CCCN2CCC(F)(F)C2)c2ccc3ncc(-c4cn[nH]c4)nc3c2)c1` [compound 134142457], the IC50 under setting [2] is 10.5 nM. For the molecule `COc1cc2nccc(Oc3ccc(NC(=O)C4(C(=O)Nc5ccc(F)cc5)CC4)cc3)c2cc1OC` [compound 25102847], the IC50 under setting [4] is 1.3 nM.

Regarding `COc1cc(OC)cc(N(CCN2[C@@H](C)CC[C@@H]2C)c2ccc3ncc(-c4cnn(C)c4)nc3c2)c1` [compound 89447247], under setting [1], the IC50 is 3.8 nM. For `COC(=O)C1=C(c2ccccc2)c2ccccc2C1=O` [compound 10015651], under setting [1], the IC50 is 5100 nM.

As to `CNC(=O)Cn1cc(-c2cnc3ccc(N(CCNC(C)C)c4cc(OC)cc(OC)c4)cc3n2)cn1` [compound 134132789], under setting [2], the IC50 is 3.39 nM. Regarding `Cc1ccc(Nc2nccc(N(C)c3ccc4c(C)n(C)nc4c3)n2)cc1S(N)(=O)=O` [compound 10113978], under setting [4], the IC50 was 10 nM.
